# Laboratory results: patent US20040034206A1, “Combination therapy for RNA virus infections involving ribavirin and IMPDH inhibitors” (priority 2002, published 2004)
# Read-outs that look alike come from different tables or passages of the source.
# Experiments:
# [1] = test system: HCV subgenomic replicon (clone 16) in Huh-7 cells; format: cell-based, Hepatitis C Virus
# From the text: We examined the mutagenic effect of ribavirin and other IMPDH inhibitors on HCV using the recently developed HCV replicon system. See German Patent No. DE19915178A1 to Bartenschlager, the disclosure of which is hereby incorporated by reference in its entirety. In the replicon system, an autonomously replicating clone of HCV comprising HCV 5′-NTR (NTR non translated region), NS3, NS4A, NS4B, NS5A, NS5B and a neomycin selectable marker gene that is linked to the HCV genes is inserted into human hepatoma cell line known as Huh-7 cells. The HCV-RNAs produced by the autonomously replicating clone of HCV in the Huh-7 cells are extracted and retransfected into naïve Huh-7 cells to evaluate the replication competence and efficiency of the HCV-RNA. Therefore, the effect of anti-viral treatments on the HCV-RNAs produced may be evaluated by growing the replicon cells in the presence or absence of such anti-viral treatments, then extracting the replicon RNA from treated cells and transfecting it into naive Huh 7 cells and measuring colony formation. The effect of the combination of ribavirin, and IMPDH inhibitors on HCV replication in vitro was evaluated using the replicon system as described below.
# HCV Cell Culture System. Human hepatoma cell line Huh-7 cells were grown in Dulbecco's modified minimal essential medium (DMEM, Cellgro) supplemented with 10% fetal bovine serum, 4 mM L-glutamine, non-essential amino acids, 10 mM HEPES, 0.075% sodium bicarbonate, 100 U/ml penicillin and 100 ug/ml streptomycin, and 1 mM sodium pyruvate. HCV subgenomic replicon (clone 16, containing NS5A S1I791 adaptive mutation as described in Blight et al., Science 290:1972 (2000)) was constructed by Schering-Plough Research Institute as described by R. Bartenschlager. See Lohmann, et al., Science 285:5424 (2000). The replicon-bearing Huh-7 cells were maintained in the same media as described above with 0.5 mg/ml G418 (Geneticin, Gibco-BRL).
# HCV RNA Replicon Copy Number measurement by Taqman assays. Replicon cells were seeded at 3000 cells per well in 96-well Bio-coated plates (Becton Dickinson) and allowed to adhere overnight. The next day the culture medium was replaced with 5% serum medium containing the experimental compound. After 72 hours the plate was harvested by aspirating medium, washing with PBS twice, and putting in […] cell lysis buffer (Ambion, catalog No. 8722). The plate was then heated at 75° C. for 5 min followed by freezing at −70° C. for 10 min. The cell lysate was then measured for HCV replicon copy number by one-step real-time RT-PCR (Taqman assay) using an ABI 7700 instrument. The primers, which correspond to HCV NS5B, are: forward, 5′-[…]-3′ (SEQ ID NO: 1), and reverse, 5′-[…]-3′ (SEQ ID NO: 2). The double fluorescence-labeled probe (5′-[…]-3′) (SEQ ID NO: 3) was purchased from Applied Biosystems (part No. P6448-6464). The cellular GAPDH (glyceraldehyde 3-phosphate dehydrogenase) mRNA from the same cell lysate was used as an internal control for cell number and metabolic status (primers/probes purchased from Perkin Elmer, part No. 4310859). Every experiment was performed in triplicate. The entire study was conducted independently two times.
# Specific Colony Formation Efficiency (SCFE) determination. Replicon cells were loaded with compound(s) for 10 days under complete DMEM (without G418), with medium changes every 2-3 days. The total cytoplasmic RNA was extracted using RNA Easy kit from Qiagen (catalog No. 74104) and the RNA concentration was determined by absorbance at 260 nm. HCV replicon copy number in each RNA sample was determined by Taqman assay using a standard curve. For electroporation of RNA obtained from compound-treated replicon cells, 8 μg of total RNA suspended in 50 μl PBS was mixed with 50 μl suspension of 2×10^6 Huh-7 cells in a 0.1 cm cuvette (Bio-Rad, catalog No. 165-2089). As a control, wild type replicon RNA was serially diluted with total RNA from naïve Huh-7 cells.
# [2] = test system: Hepatitis C Virus; details: IFN-α monotherapy, chronic HCV infection, depending on genotype; cited from earlier work
# [3] = human, in vivo; cited from earlier work
# [4] = target: inosine monophosphate dehydrogenase (IMPDH); details: cited from J. Jain et al.; cited from earlier work
compound,measurement,setting,value
"COc1c(C)c2c(c(O)c1C/C=C(\C)CCC(=O)O)C(=O)OC2 [MPA, mycophenolic acid]",No. of Colonies,[1]; 2 μM MPA,470
same,Replicon Copy No.,[1]; 2 μM MPA,9 copies X 10^7/8 μg total RNA
same,SCFE (Specific Colony Formation Efficiency),[1]; 2 μM MPA,510 colonies/10^8 HCV RNA genomes
"Nc1nc2c(ncn2[C@@H]2O[C@H](CO)[C@@H](O)[C@H]2O)c(=O)[nH]1 [Guan., guanosine]",No. of Colonies,[1]; 10 μM Guan.,210
same,Replicon Copy No.,[1]; 10 μM Guan.,12 copies X 10^7/8 μg total RNA
same,SCFE (Specific Colony Formation Efficiency),[1]; 10 μM Guan.,180 colonies/10^8 HCV RNA genomes
interferon-alpha,response rate,[2],about 25%
"NC(=O)c1ncn([C@@H]2O[C@H](CO)[C@@H](O)[C@H]2O)n1 [ribavirin, 1-beta-D-Ribofuranosyl-1H-1,2,4-triazole-3-carboxamide]",No. of Colonies,[1]; 10 μM ribavirin,650
same,Replicon Copy No.,[1]; 10 μM ribavirin,14 copies X 10^7/8 μg total RNA
same,SCFE (Specific Colony Formation Efficiency),[1]; 10 μM ribavirin,480 colonies/10^8 HCV RNA genomes
same,No. of Colonies,[1]; 50 μM ribavirin,420
same,Replicon Copy No.,[1]; 50 μM ribavirin,12 copies X 10^7/8 μg total RNA
same,SCFE (Specific Colony Formation Efficiency),[1]; 50 μM ribavirin,360 colonies/10^8 HCV RNA genomes
same,No. of Colonies,[1]; 100 μM ribavirin,110
same,Replicon Copy No.,[1]; 100 μM ribavirin,6 copies X 10^7/8 μg total RNA
same,SCFE (Specific Colony Formation Efficiency),[1]; 100 μM ribavirin,200 colonies/10^8 HCV RNA genomes
same,reduction in the fitness of the replicon (specific colony formation efficiency),[1]; 100 μM ribavirin alone,~4 fold
same,patients with reduction in hemoglobin of greater than 4 g/dl,[3],15.7%
"COc1cc(NC(=O)Nc2cccc(CNC(=O)O[C@H]3CCOC3)c2)ccc1-c1cnco1 [IMPDH-I, (S)-N-3-[3-(3-methoxy-4-oxazol-5-yl-phenyl)ureido]-benzylcarbamic acid tetrahydrofuran-3-yl-ester]",No. of Colonies,[1]; 100 nM IMPDH-I,370
same,Replicon Copy No.,[1]; 100 nM IMPDH-I,10 copies X 10^7/8 μg total RNA
same,SCFE (Specific Colony Formation Efficiency),[1]; 100 nM IMPDH-I,360 colonies/10^8 HCV RNA genomes
same,effect on the replicon,"[1]; 100 nM IMPDH-I alone, Example 5",only a marginal effect
same,Ki,[4],~10 nM
